Source: patent publication US10336762B2 (priority 2017, dated 2019)
Where two headings read alike, the source gives them in different places.

Key:
IRAK4 enzyme = IRAK4 enzyme (Homo sapiens (Human), UniProt Q9NWZ3); assay: biochemical; format: biochemical; details: IRAK4 enzyme, 500 μM ATP
TNFα = assay: cells; format: cell-based, human; details: Homo sapiens, Monocyte, LPS-stimulated human monocytes, read-out: EC50 TNF

Chain of IRAK4 enzyme (Q9NWZ3 whole entry): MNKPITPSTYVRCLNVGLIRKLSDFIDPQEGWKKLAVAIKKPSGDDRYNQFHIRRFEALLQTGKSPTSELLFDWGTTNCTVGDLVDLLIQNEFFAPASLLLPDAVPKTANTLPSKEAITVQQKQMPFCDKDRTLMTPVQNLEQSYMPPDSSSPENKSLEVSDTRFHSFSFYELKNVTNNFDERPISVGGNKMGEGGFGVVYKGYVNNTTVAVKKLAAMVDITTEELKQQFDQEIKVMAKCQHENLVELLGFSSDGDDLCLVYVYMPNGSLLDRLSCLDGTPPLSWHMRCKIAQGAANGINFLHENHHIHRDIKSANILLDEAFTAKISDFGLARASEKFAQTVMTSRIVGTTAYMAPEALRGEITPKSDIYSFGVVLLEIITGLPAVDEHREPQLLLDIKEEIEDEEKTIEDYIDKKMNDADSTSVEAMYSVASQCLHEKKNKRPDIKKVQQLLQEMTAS

| Structure (SMILES) | IC50 (IRAK4 enzyme; TR-FRET) [nM] | EC50 (TNFα; TNFα content) [nM] | IC50 (IRAK4 enzyme; TR-FRET (HTRF)) [nM] | EC50 (TNFα; TNFα by TR-FRET) [nM] |
| --- | --- | --- | --- | --- |
| CC(C)(O)[C@H](F)CNC(=O)c1cnc(-c2ccc3cc(C#N)cnn23)cc1N[C@H]1CC[C@H](NC(=O)C2CCOCC2)CC1 [Example 294, 6-(3-cyanopyrrolo[1,2-b]pyridazin-7-yl)-N-((R)-2-fluoro-3-hydroxy-3-methylbutyl)-4-(((1r,4R)-4-(tetrahydro-2H-pyran-4-carboxamido)cyclohexyl)amino)nicotinamide] | 3 | 735 | – | – |
| CC(C)(O)[C@H](F)CNC(=O)c1cnc(-c2ccc3cc(C#N)cnn23)cc1Nc1ccc(CNC(=O)C2CC2)cc1 [Example 202, (R)-6-(3-cyanopyrrolo[1,2-b]pyridazin-7-yl)-4-((4-(cyclopropane-carboxamidomethyl)phenyl)amino)-N-(2-fluoro-3-hydroxy-3-methylbutyl)nicotinamide] | < 1 | 22 | – | – |
| COC(=O)N[C@H]1C[C@@H](Nc2cc(-c3ccc4cc(C#N)cnn34)ncc2C(=O)NC[C@@H](F)C(C)(C)O)C1 [Example 457, methyl ((1S,3s)-3-((2-(3-cyanopyrrolo[1,2-b]pyridazin-7-yl)-5-(((R)-2-fluoro-3-hydroxy-3-methylbutyl)carbamoyl)pyridin-4-yl)amino)cyclo-butyl)carbamate] | – | 370 | 3 | – |
| CC(C)(O)[C@H](F)CNC(=O)c1cnc(-c2ccc3cc(C#N)cnn23)cc1Nc1ccc(-c2cn[nH]c2)cn1 [Example 956, (R)-4-((5-(1H-pyrazol-4-yl)pyridin-2-yl)amino)-6-(3-cyanopyrrolo[1,2-b]pyridazin-7-yl)-N-(2-fluoro-3-hydroxy-3-methyl-butyl)nicotinamide] | < 1 | – | – | 31 |
| CC(C)(O)[C@H](F)CNC(=O)c1cnc(-c2ccc3cc(C#N)cnn23)cc1N[C@H]1CC[C@H](CN2CCOC2=O)CC1 [Example 715, 6-(3-cyanopyrrolo[1,2-b]pyridazin-7-yl)-N-((R)-2-fluoro-3-hydroxy-3-methylbutyl)-4-(((1r,4R)-4-((2-oxooxazolidin-3-yl)methyl)cyclohexyl)amino)nicotinamide] | – | 57 | 1 | – |
| N#Cc1cnn2c(-c3cc(NC45CCC(O)(CC4)CC5)c(C(=O)N[C@@H]4CCCNC4=O)cn3)ccc2c1 [Example 958, (R)-6-(3-cyanopyrrolo[1,2-b]pyridazin-7-yl)-4-((4-hydroxybicyclo[2.2.2]octan-1-yl)amino)-N-(2-oxo-piperidin-3-yl)nicotinamide] | 1 | – | – | 219 |
| N#Cc1cnn2c(-c3cc(NC45CCC(O)(CC4)CC5)c(C(=O)NCC4(CO)COC4)cn3)ccc2c1 [Example 711, 6-(3-cyanopyrrolo[1,2-b]pyridazin-7-yl)-4-((4-hydroxybicyclo[2.2.2]octan-1-yl)amino)-N-((3-(hydroxymethyl)oxetan-3-yl)methyl)nicotinamide] | – | 231 | 2 | – |
| Cc1nnc(-c2ccc(Nc3cc(-c4ccc5cc(C#N)cnn45)ncc3C(=O)NC[C@@H](F)C(C)(C)O)cc2)[nH]1 [Example 218, (R)-6-(3-cyanopyrrolo[1,2-b]pyridazin-7-yl)-N-(2-fluoro-3-hydroxy-3-methylbutyl)-4-((4-(5-methyl-4H-1,2,4-triazol-3-yl)phenyl)amino) nicotinamide] | < 1 | 41 | – | – |
